{"source": "patent US12303506B2", "about": "“Trabectedin composition” (EXTROVIS AG, priority 2022, dated 2025)", "origin": "cited, not measured here", "conditions": "background statement", "data": [{"compound": "COc1cc2c(cc1O)CCN[C@]21CS[C@@H]2c3c(OC(C)=O)c(C)c4c(c3[C@H](COC1=O)N1[C@@H]2[C@H]2c3c(cc(C)c(OC)c3O)C[C@@H]([C@@H]1O)N2C)OCO4", "note": "[Trabectedin, (1′R,6R,6aR,7R,13S,14S,16R)-5(acetyloxy)-3′,4′,6,6a,7,13,14,16-octahydro-6′,8,14-trihydroxy-7′,9-dimethoxy-4,10,23 trimethylspiro[6,16-(epithiopropanoxymethano)-7,13-imino-12H-1,3dioxolo[7,8]isoquino[3,2b][3]benzazocine-20,1′(2′H)-isoquinolin]-19-one]", "values": [{"measurement": "aqueous solubility", "value": "limited aqueous solubility"}]}]}
